The test system of assay [1] is rats. The experiment in a line: hot plate test on rats, analgesic effect (Tables 1 and 2). The assay is classed as in vivo. The procedure:
Examination of PROBON'S potentiating effect upon
azidomorphine and azidocodeine, carried out on rats, by
hot plate test, compared with Algopyrine. The compounds
were administered s.c. (subcutaneously).
Examination of the potentiating effect of a few
homopyrimidazole derivatives upon axidomorphine or
azidocodeine, carried out on rats, by Hot plate test, the
compounds were administered s.c.

The subject of assay [2] is rats. To be noted: rat, in vivo.
Assay [3] has as its system rats. To be noted: rat, in vivo; for analgesic effect of the component per se (in words): sc.
The subject of assay [4] is rats. The assay can be described thus: algolytic test, analgesia evaluated by pain score scale (Table A). The assay is classed as in vivo. To be noted: for Pain units: pretr. time 1 hour, alone.
Assay [5] can be described thus: modified hot plate test, duration of effect. To be noted: azidocodeine alone. The assay is classed as in vivo.

For the compound `Cc1c(N(C)CS(=O)(=O)O)c(=O)n(-c2ccccc2)n1C` [Algopyrin, 2,3-dimethyl-4-methylamino-1-phenyl-5-pyrazolon-N-methane-sulfonic acid, reference compound], the “Analgesic effect, Hot plate test” value in assay [1] (150 mg/kg s.c., alone) is recorded as 33%; in assay [1] (200 mg/kg s.c., alone), 49%; in assay [1] (AP 150 mg/kg s.c., AM --, AK dose left blank), 29%. In assay [1] (Hot plate test, rats, s.c.), the “analgesic potency relative to Probon (in words)” value is “equipotent with Probon”. In addition, the “effect on analgesic effect of azidomorphine or azidocodeine (in words)” value in assay [1] (Hot plate test, rats, s.c.) is “does not increase the analgesic effect”.

As for `O=C(CCCN1CCC(O)(c2ccc(Cl)cc2)CC1)c1ccc(F)cc1` [haloperidol, reference compound], the “Prolongation of narcotic period” value in assay [2] is 255%.

For the compound `CC1CCCc2n1c(=O)c(C(=O)[O-])c[n+]2C` (stereo not shown) [MZ-211, 1,6-dimethyl-4-oxo-6,7,8,9-tetrahydro-homopyrimidazole-3-carboxylic acid], in assay [1] (50 mg/kg s.c., alone), the “Analgesic effect, Hot plate test” value was found to be 38%. In assay [3], the “Analgesic effect, algolytic test” value is 15%.

For the compound `CN1CC[C@]23c4c5ccc(O)c4O[C@H]2[C@H](N=[N+]=[N-])CC[C@H]3[C@H]1C5` [Azidomorphine], in assay [1] (AM 0.015 mg/kg s.c., alone), the “Analgesic effect, Hot plate test” value turned out to be 22%. The “analgesic effect of the component per se (in words)” value in assay [3] was “ineffective”.

`CCOC(=O)c1c[n+](C)c2n(c1=O)C(C)CCC2` (stereo not shown) [MZ-144, 1,6-dimethyl-3-carbethoxy-4-oxo-6,7,8,9-tetrahydro-homopyrimidazolium-methosulphate] displayed a Pain units in assay [4] (MZ-144 300 mg/kg p.o.) of 75 Pain units. In addition, the “Analgesic effect, Hot plate test” value in assay [1] (50 mg/kg s.c., alone) is given as 38%. Further, in assay [3], the “Analgesic effect, algolytic test” value is 59% and the “analgesic effect of the component per se (in words)” value was “ineffective”. In assay [2], the “Prolongation of narcotic period” value is on record as 571%.

Regarding `COc1ccc2c3c1O[C@H]1[C@H](N=[N+]=[N-])CC[C@H]4[C@@H](C2)N(C)CC[C@@]341` [Azidocodeine], the Pain units in assay [4] (Azidocodeine 30 mg/kg p.o.) is 87 Pain units; in assay [4] (Azidocodeine 45 mg/kg p.o.), 38 Pain units; in assay [4] (Azidocodeine 60 mg/kg p.o.), 30 Pain units. Further, in assay [4] (azidocodeine alone, from diagram plotted from Table A), the “ED50 in the algolytic test” value turned out to be 32 mg/kg. The “duration of the effect” value in assay [5] was in the range of 2 to 2.5 h. Moreover, the “Analgesic effect, Hot plate test” value in assay [1] (AK 0.250 mg/kg s.c., alone) worked out at 16%.

`CCOC(=O)c1cnc2n(c1=O)C(C)CCC2` (stereo not shown) [MZ-108, 3-carbethoxy-4-oxo-6-methyl-6,7,8,9-tetrahydro-homopyrimidazole]: the “Analgesic effect, Hot plate test” value in assay [1] (200 mg/kg s.c., alone) worked out at 18%. Further, in assay [3], the “Analgesic effect, algolytic test” value amounted to 31%.

Take `CCOC(=O)C1=CN(C)C2CCCC(C)N2C1=O` (stereo not shown) [MZ-168, 1,6-dimethyl-3-carbethoxy-4-oxo-1,6,7,8,9,10-hexahydro-homopyrimidazole]: in assay [1] (50 mg/kg s.c., alone), the “Analgesic effect, Hot plate test” value stood at 23%.

With `CCOC(=O)C1CN(C)C2CCCC(C)N2C1=O` (stereo not shown) [MZ-170, 1,6-dimethyl-3-carbethoxy-4-oxo-1,2,3,6,7,8,9,10-octahydro-homopyrimidazole], the “Analgesic effect, Hot plate test” value in assay [1] (300 mg/kg s.c., alone) is on record as 31%.

Values taken from patent publication US4027024A (priority 1972, dated 1977).
